The values below come from US20090023646A1, “GHRH analogues” (Centre Hospitalier de L'Universite de Montreal (CHUM), priority 2002, published 2009).

Data set [1] in a line: in vitro. The following applies: male, human, plasma.
Experimental: (§1) Ten μl of a 300 M solution of hGHRH (1-29)NH2 or of a GHRH analogue was solubilized in dimethylsulfoxide (DMSO) and incubated in one of the following conditions: a—190 μl serum (1/100 dilution in picopure water) from 2-month-old male Sprague Dawley rats, at 37° C. for 0, 8, 15, 30 or 60 min, in polypropylene tubes; b—190 μl of human healthy volunteer plasma (from Human Whole Blood Na EDTA, males, drug free (Algorithme Pharma Inc.); project: MTL-P2-155; Lot: MTLP2155-01, supplied by LAB Dev Int); and c—190 μl of human healthy volunteer pooled serum, Lot: X409 (supplied by LAB Dev Int), at 37° C. for 0, 60, 120, 180 or 420 min, in polypropylene tubes. Proteolysis was stopped by adding 800 μl of ice-cold stop buffer (potassium-phosphate buffer, acidified to pH 0.8 with trifluoroacetic acid (TFA) and boiling 5 min (rat serum only). After centrifugation (12000 g, 5 min, 4° C.) (rat serum only), serum-peptide mixtures were passed through a conditioned Sep-Pak C-18 cartridge to extract native GHRH or a GHRH analogue residual concentrations from serum proteins. The native GHRH or the analogue was eluted in 2 ml of 50% acetonitrile-0.01% TFA/50% 0.01% aqueous TFA. Two hundred μl of extracted peptide, representing 1 μg of GHRH or analogue at time 0, was quantified by analytical HPLC, using one μ-Bondapak C18 column (10 μm particle size, 0.39×15 cm) (rat serum) or two C18 column in series (human serum and plasma) and a binary solvent system composed of NaClO4 0.01 M, pH 2.5 and acetonitrile. A linear gradient from 30 to 60% acetonitrile over 45 min (rat serum) or 30 to 50% (human serum and plasma) was used.
(§2) More specifically, the values represent the mean, standard deviation and standard error from the mean of 3 to 7 experiments.
Data set [2] has as its target T1, human GHRH receptor (Homo sapiens, UniProt Q02643).
T1 construct: expressed in transfected cells; host or cells: BHK (baby hamster kidney) 570 cells
T1 sequence (Q02643 23-423): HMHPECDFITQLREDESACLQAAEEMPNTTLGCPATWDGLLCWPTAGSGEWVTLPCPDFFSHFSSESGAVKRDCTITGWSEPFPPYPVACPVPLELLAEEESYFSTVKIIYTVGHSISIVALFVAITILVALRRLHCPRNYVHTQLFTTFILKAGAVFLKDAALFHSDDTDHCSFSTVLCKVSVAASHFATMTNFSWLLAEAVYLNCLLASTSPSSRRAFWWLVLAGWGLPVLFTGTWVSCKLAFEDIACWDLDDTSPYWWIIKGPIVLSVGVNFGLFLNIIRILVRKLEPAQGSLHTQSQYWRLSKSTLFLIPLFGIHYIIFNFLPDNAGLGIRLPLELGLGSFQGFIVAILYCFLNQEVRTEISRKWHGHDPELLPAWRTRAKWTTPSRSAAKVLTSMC
Put plainly: Competitive 125I-GHRH binding assay in BHK cell membrane preparations expressing the human GHRH receptor. As for the experimental part: Non specific binding was determined in presence of 1 μM hGHRH(1-29)NH2. Incubation was carried out at equilibrium (23° C., 60 min) and stopped by centrifugation (12,000 g, 5 min, at 4° C.). The radioactivity content in pellets was determined by gamma counting. The affinity of hGHRH(1-29) NH2 was tested in each experiment to assess the validity of the assay and determine the relative affinity of the analogues.
Values represent the mean±SEM of 3 experiments performed in triplicate for the analogues and the mean±SEM of 2 experiments performed in triplicate for hGHRH(1-44) NH2.
For the binding assay results presented in Tables 8 to 11, values represent the mean±SEM of 8 independent experiments performed in triplicate for the analogues and the mean±SEM of 4 experiments performed in triplicate for hGHRH(1-29)NH2. […] The relative affinity was obtained by taking the ratio IC50 of hGHRH (1-29)-NH2/IC50 analogue.

Data set [3] has as its system adult female rats. Kind of data set: In vivo GH secretion after single IV or SC injection in female rats. The arrangement: species or system rat. As for the experimental part:
The ability of human GHRH analogue #5 (human [D-Ala^2, D-Tyr^10, D-Ala^15, Lys^22] GHRH (1-29)NH2 analogue) to stimulate GH secretion was studied in adult female rats (26-34 weeks at onset of treatment) and in a male Beagle dog.
Human GHRH analogue #5 in 0.9% sodium chloride for injection USP was administered once either by intravenous (IV) or subcutaneous (SC) injection to female rats followed by a 14-day observation period, as shown in Table 2. Prior to administration, all dosing formulations were filtered using a 0.22 μm filter to ensure sterility. The actual amount of GHRH analogue #5 administered was calculated and adjusted based on the animal's most recent body weight. Dosing started at approximately the same time each day, commencing at 9:00 am±30 minutes.
For pharmacodynamic investigations, blood samples (approximately 1.3 ml) were collected from 2 animals per group per time point (maximum 3 time points/animal) via a jugular venipuncture at the following time points: pre-dose, 4, 10, 15, 45 minutes and 5 hours post dosing. […]
Plasma GH was determined by Linco Diagnostic Services using their own kit.
Linco's Rat Growth Hormone radioimmunoassay kit (RIA) (RGH-45HK) is intended for the quantitative determination of Rat Growth Hormone in serum, plasma, and tissue culture media. […]

A short description of data set [4]: In vitro proteolysis assay in rat serum. The data set is classed as in vitro ADME. The following applies: mean±SEM.
Experimental: Proteolysis was stopped by adding 800 μl of ice-cold stop buffer (potassium-phosphate buffer, acidified to pH 0.8 with trifluoroacetic acid (TFA) and boiling 5 min (rat serum only). After centrifugation (12000 g, 5 min, 4° C.) (rat serum only), serum-peptide mixtures were passed through a conditioned Sep-Pak C-18 cartridge to extract native GHRH or a GHRH analogue residual concentrations from serum proteins. The native GHRH or the analogue was eluted in 2 ml of 50% acetonitrile-0.01% TFA/50% 0.01% aqueous TFA. Two hundred μl of extracted peptide, representing 1 μg of GHRH or analogue at time 0, was quantified by analytical HPLC, using one μ-Bondapak C18 column (10 μm particle size, 0.39×15 cm) (rat serum) or two C18 column in series (human serum and plasma) and a binary solvent system composed of NaClO4 0.01 M, pH 2.5 and acetonitrile. A linear gradient from 30 to 60% acetonitrile over 45 min (rat serum) or 30 to 50% (human serum and plasma) was used.
Data set [5] can be described thus: In vitro proteolysis assay in human serum. The class given is in vitro ADME.
Experimental: as §1, §2

SMILES strings stand for the structures. Square brackets hold non-standard residues; d marks the D form. Peptide text beside a SMILES is read from it.

Consider `CC[C@H](C)[C@H](NC(=O)[C@H](C)NC(=O)[C@H](CC(=O)O)NC(=O)[C@@H](C)NC(=O)[C@@H](N)Cc1ccc(O)cc1)C(=O)N[C@@H](Cc1ccccc1)C(=O)N[C@H](C(=O)N[C@@H](CC(N)=O)C(=O)N[C@@H](CO)C(=O)N[C@H](Cc1ccc(O)cc1)C(=O)N[C@@H](CCCNC(=N)N)C(=O)N[C@@H](CCCCN)C(=O)N[C@H](C(=O)N[C@@H](CC(C)C)C(=O)N[C@H](C)C(=O)N[C@@H](CCC(N)=O)C(=O)N[C@@H](CC(C)C)C(=O)N[C@@H](CO)C(=O)N[C@@H](C)C(=O)N[C@@H](CCCNC(=N)N)C(=O)N[C@@H](CCCCN)C(=O)N[C@@H](CCCCN)C(=O)N[C@@H](CC(C)C)C(=O)N[C@@H](CCC(N)=O)C(=O)N[C@@H](CC(=O)O)C(=O)N[C@H](C(=O)N[C@@H](CCSC)C(=O)N[C@@H](CO)C(=O)N[C@@H](CCCNC(=N)N)C(N)=O)[C@@H](C)CC)C(C)C)[C@@H](C)O` [GHRH analogue #5, [D-Ala^2, D-Tyr^10, D-Ala^15, Lys^22] hGHRH(1-29)-NH2] (H-Y[dA]DAIFTNS[dY]RKVL[dA]QLSARKKLQDIMSR-NH2), for which the remaining at 1 h, 15 µM in data set [1] (Mean residual amount) was 92%; in data set [4] (male, Sprague Dawley, diluted 1/100, incubation 60 min, read-out: Residual concentration) it was 50 ± 3%; in data set [5] (human, pooled human serum, human serum, incubation time 60 min, read-out: Mean residual amount), 88%. Also, the remaining at 2 h, 15 µM in data set [1] (Mean residual amount) amounted to 84%; in data set [5] (human, pooled human serum, human serum, incubation time 120 min, read-out: Mean residual amount), 76%. The remaining at 3 h, 15 µM in data set [1] (Mean residual amount) turned out to be 78%; in data set [1] (Residual peptide concentration), 74 ± 7%; in data set [5] (human, pooled human serum, 180-min incubation in human serum, read-out: Residual peptide concentration (180 min)), 62 ± 2%; in data set [5] (human, pooled human serum, human serum, incubation time 180 min, read-out: Mean residual amount), 63%. In addition, the remaining at 7 h, 15 µM in data set [1] (Mean residual amount) worked out at 75%; in data set [5] (human, pooled human serum, human serum, incubation time 420 min, read-out: Mean residual amount), 50%. Moreover, the IC50 entry in data set [2] (Table 7, mean±SEM of 3 experiments (analogue) or 2 experiments (hGHRH(1-44)NH2) in triplicate) was “no significant difference was observed”. In data set [2] (ratio IC50 of hGHRH(1-29)-NH2/IC50 analogue, mean±SEM), the “Relative binding affinity (R1) in comparison with hGHRH(1-29)NH2 in BHK cells expressing the hGHRH receptor” value is 939 ± 249. Also, in data set [3] (in vivo, conclusion), the “in vivo potency compared with the natural 44 amino acid GHRH” value is reported as “at least two times more potent”. In data set [3] (rat, pulse amplitude and AUC), the “GH secretion compared with response to natural hGHRH(1-44)NH2” value is recorded as “twice larger”. Further, the Residual concentration is recorded as 100 ± 0 % of initial concentration in data set [4] (incubation 0 min) and “significantly higher than that of either GHRH analogue 1, 2 or 3” in data set [4] (incubation 60 min). The remaining at 8 min, 15 µM in data set [4] (male, Sprague Dawley, diluted 1/100, incubation 8 min, read-out: Residual concentration) came to 92 ± 5%. Moreover, the remaining at 0.25 h, 15 µM in data set [4] (male, Sprague Dawley, diluted 1/100, incubation 15 min, read-out: Residual concentration) came out at 82 ± 6%. In addition, in data set [4] (male, Sprague Dawley, diluted 1/100, incubation 30 min, read-out: Residual concentration), the remaining at 0.5 h, 15 µM worked out at 74 ± 7%. Also, the “R2 (60 min): Relative resistance to in vitro proteolysis in comparison with hGHRH(1-29)NH2” value in data set [5] (60-min incubation in human serum) came out at 1.55 ± 0.04. For the same compound, the “R2 (180 min): Relative resistance to in vitro proteolysis in comparison with hGHRH(1-29)NH2” value in data set [5] (180-min incubation in human serum) is reported as 2.93 ± 0.87. The Mean residual amount in data set [5] (human serum, incubation time 0 min) is given as 100%; in data set [5] (human serum, incubation time 420 min) it was 50%.
